pIC50: −log10 of the molar value.

The first test deals with leukotriene biosynthesis. The test is described as follows: In vivo inhibition of leukotriene biosynthesis, rat peritoneal anaphylaxis model. As to conditions: 1 h, 200 μmol/kg oral dose, gavage one hour prior to antigen challenge, read-out: Percent Inhibition. The method, then:
Inhibition of the biosynthesis of leukotrienes in vivo after oral administration of compound was determined using a rat peritoneal anaphylaxis model in a similar manner as that described by Young and coworkers (Young, P. R.; Dyer, R. D.; Carter, G. W. Fed. Proc., Fed. Am. Soc. Exp. Biol. 1985, 44, 1185). In this model rats were injected intraperitoneally (ip) with rabbit antibody to bovine serum albumin (BSA) and three hours later injected ip with BSA to induce an antgen-antibody response. Rats were sacrificed 15 minutes after this challenge and the peritoneal fluids were collected and analyzed for leukotriene levels. Test compounds were administered by gavage one hour prior to the antigen challenge. Percent inhibition values were determined by comparing the treatment group to the mean of the control group.
As for `CC(c1ccc2ccccc2c1)N(O)C(N)=O` (stereo not drawn) [Example 9, N-hydroxy-N-(1-(2-naphthyl)ethyl) urea], the inhibition in vivo at 200 µmol/kg came to 69%. Same read-out and setting: the result for `Cc1ccsc1CN(O)C(N)=O` [Example 49, N-hydroxy-N-(3-methylthien-2-yl)methyl urea] reads 94%.

As to `CCC(c1ccc(Br)cc1)N(O)C(N)=O` (stereo not drawn) [Example 102, N-Hydroxy-N-(1-(4-bromophenyl)propyl) urea], the inhibition in vivo at 200 µmol/kg is 85%. On the same count and under the same terms, then `CCC(c1ccc(Br)cc1)N(O)C(=O)NC` (stereo not drawn) [Example 103, N-Hydroxy-N-(1-(4-bromophenyl)propyl)-N'-methylurea], with 88%. The same measure, in the same setting: then `CC(c1ccc(C(F)(F)F)cc1)N(O)C(N)=O` (stereo not drawn) [Example 111, N-Hydroxy-N-(1-(4-trifluoromethylphenyl)ethyl) urea], with 97%; and `CC(c1ccc(-c2ccccc2)cc1)N(O)C(N)=O` (stereo not drawn) [Example 120, N-Hydroxy-N-(1-(4-biphenyl)ethyl) urea], with 77%.

For the next test, the target named is T1, 5-Lipoxygenase from RBL-1 20,000 xg Supernatant (Rattus norvegicus, UniProt P12527).
T1 construct: supermatant from 1.5 million homogenized RBL-1 cells; endogenous in cells; host or cells: RBL-1 cells, 20,000 x g supernatant of homogenate
T1 sequence (P12527 1-673): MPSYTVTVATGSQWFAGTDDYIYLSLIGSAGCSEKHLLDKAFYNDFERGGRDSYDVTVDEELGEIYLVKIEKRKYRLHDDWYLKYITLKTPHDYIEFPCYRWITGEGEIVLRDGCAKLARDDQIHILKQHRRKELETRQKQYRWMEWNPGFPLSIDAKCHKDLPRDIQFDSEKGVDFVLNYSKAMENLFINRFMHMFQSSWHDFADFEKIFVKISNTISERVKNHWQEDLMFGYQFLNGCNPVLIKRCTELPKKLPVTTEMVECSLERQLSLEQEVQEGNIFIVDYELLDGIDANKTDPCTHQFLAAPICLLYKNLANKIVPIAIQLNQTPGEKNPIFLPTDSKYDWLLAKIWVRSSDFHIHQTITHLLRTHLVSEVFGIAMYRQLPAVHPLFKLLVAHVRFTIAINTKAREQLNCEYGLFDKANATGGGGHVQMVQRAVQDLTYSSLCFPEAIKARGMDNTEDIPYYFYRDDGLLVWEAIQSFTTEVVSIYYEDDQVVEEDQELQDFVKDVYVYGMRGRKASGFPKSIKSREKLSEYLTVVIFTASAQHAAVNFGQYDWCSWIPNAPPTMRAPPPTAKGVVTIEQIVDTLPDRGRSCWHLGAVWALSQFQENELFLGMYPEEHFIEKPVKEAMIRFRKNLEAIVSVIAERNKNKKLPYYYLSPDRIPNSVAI
The test is described as follows: In vitro inhibition of 5-lipoxygenase from RBL-1 20,000 xg supernatant. The test is classed as biochemical. As to conditions: radiolabeled arachidonic acid. How it is done: Assays to determine 5-lipoxygenase inhibitory activity were performed in […] incubations containing the 20,000xg supermatant from 1.5 million homogenized RBL-1 cells and various concentrations of the test compound. Reactions were initiated by addition of radiolabeled arachidonic acid and terminated by acidification and ether extraction. Reaction products were separated from nonconverted substrate by thin layer chromatography and measured by liquid scintillation spectroscopy. All incubations are performed in triplicate. Inhibition of 5-lipoxygenase activity was calculated as the ratio of the amount of product formed in the presence and absence of inhibitor. […] (Dyer, R.D.; Haviv, F.; Hanel, A. M.; Bornemier, D. A.; Carter, G. W. Fed. Proc., Fed. Am. Soc. Exp. Biol. 1984, 43, 1462A).
What is called pIC50 is −log10 of the IC50, conventionally taken in molar units. A higher pIC50 goes with a small IC50. For `NC(=O)N(O)Cc1sccc1Sc1ccc(O)cc1` [Example 140, N-hydroxy-N-[3-(4-hydroxyphenylthio)thien-2-yl]methyl urea], the pIC50 was 6.40. Same read-out and setting: then `NC(=O)N(O)Cc1sccc1Sc1ccc(Br)cc1` [Example 141, N-hydroxy-N-[3-(4-bromophenylthio)thien-2-yl]methyl urea], with 6.70; and `NC(=O)N(O)Cc1sccc1Sc1ccc(Cl)cc1` [Example 142, N-hydroxy-N-[3-(4-chlorophenylthio)thien-2-yl]methyl urea], with 6.52. On the same count and under the same terms, then `NC(=O)N(O)Cc1sccc1Sc1ccc(F)cc1` [Example 143, N-hydroxy-N-[3-(4-fluorophenylthio)thien-2-yl]methyl urea], with 6.52; and `CC(C)(C)c1ccc(Sc2ccsc2CN(O)C(N)=O)cc1` [Example 144, N-hydroxy-N-[3-(4-tertbutylphenylthio)thien-2-yl]methyl urea], with 6.70.

The compound `NC(=O)N(O)Cc1sccc1Sc1ccccn1` [Example 145, N-hydroxy-N-[3-(2-pyridylthio)thien-2-yl]methyl urea] gave a pIC50 of 5.82.

As for `NC(=O)N(O)Cc1sccc1SCc1ccco1` [Example 146, N-hydroxy-N-[3-(2-furfurylmethylthio)thien-2-yl]methyl urea], the pIC50 was 6.15.

Consider `CC(C)(C)Sc1ccsc1CN(O)C(N)=O` [Example 147, N-hydroxy-N-[3-(tertbutylthio)thien-2-yl]methyl urea], for which the pIC50 is 5.43. `CC(C)(C)Sc1ccc(CN(O)C(N)=O)s1` [Example 148, N-hydroxy-N-[5-(tertbutylthio)thien-2-yl]methyl urea] had a pIC50 of 6.52.

The compound `CC(c1ccc(SC(C)(C)C)s1)N(O)C(N)=O` (stereo not drawn) [Example 149, N-hydroxy-N-[1-(5-{terbutylthio}thien-2-yl)ethyl]urea] had a pIC50 of 6.10.

`CC(C)(C)Sc1ccc(/C=C/CN(O)C(N)=O)s1` [Example 154, N-hydroxy-N-3-[5-(tertbutylthio)thien-2-yl]propenyl urea]: the pIC50 is 6.70. Same read-out and setting: then `NC(=O)N(O)Cc1ccc(Oc2ccccc2)s1` [Example 155, N-hydroxy-N-[5-(phenoxy)thien-2-yl]methyl urea], with 6.15; and `NC(=O)N(O)Cc1sccc1Oc1ccccc1` [Example 156, N-hydroxy-N-[3-(phenoxy)thien-2-yl]methyl urea], with 6.00. `NC(=O)N(O)Cc1cc(Oc2ccccc2)cs1` [Example 157, N-hydroxy-N-[4-(phenoxy)thien-2-yl]methyl urea] had a pIC50 of 6.30. Same read-out and setting: then `NC(=O)N(O)Cc1cc(Oc2ccc(Cl)cc2)cs1` [Example 158, N-hydroxy-N-[4-(4-chlorophenoxy)thien-2-yl]methyl urea], with 6.40.

Source of the values: patent US5185363A, “Urea based lipoxygenase inhibiting compounds” (Abbott Laboratories, priority 1991, dated 1993).
